The source of these data is US5410018A, “Bombesin-related peptides” (Oregon Regional Primate Research Center, priority 1994, dated 1995).

Non-standard residues stand in square brackets, D forms with d. Residues, ends and D or L forms follow the SMILES beside them. No end group written: not given here. pGlu = O=C1CC[C@@H](C(=O)O)N1

In experiment [1] the target is NMB receptor (Rattus norvegicus, UniProt P24053). In words: biochemical. The method, then: Membranes of the NMB receptor used in the binding assay were obtained by homogenizing rat olfactory bulb tissue (Polytron, setting 6, 15 sec) in ice-cold 50 mM Tris-HC1 (Buffer A) and centrifuging twice as 39,000 x g (10 min), with an intermediate resuspension in fresh buffer. The final pellets were resuspended in the 50 mM Tris-HCl, containing 0.1 mg/ml bacitracin, and 0.1% BSA (Buffer B), and held on ice for the receptor binding assay. For the assay, aliquots (0.4 ml) were incubated with 0.05 ml [^125 I] NMB (-2200 Ci/mmol, New England Nuclear) and Buffer B, with and without 0.05 ml of unlabeled competing peptides. The experiment was performed with BIM-26336, […], GRP, and NMB as competing peptides.
After a 30 min incubation (4° C.), the bound [^125 I]NMB was separated from the free by rapid filtration through GF/B filters which had been previously soaked in 0.3% polyethyleneimine. The filters were then washed three times with 5 ml aliquots of ice-cold Buffer A. Specific binding was defined as the total [125I] NMB bound minus that bound in the presence of 1 μM unlabeled NMB.

Experiment [2] deals with T1, human NMB receptor (Homo sapiens, UniProt P28336).
T1 construct: expressed in transfected cells; host or cells: Xenopus oocytes injected with NMB receptor RNA and aequorin
In words: Calcium uptake functional assay in xenopus oocytes expressing the human NMB receptor (aequorin luminometry). The settings on record: xenopus oocytes coinjected with NMB receptor RNA and aequorin. In kind it is cell-based. As for the experimental part:
(§1) The ability of BIM-26336 and BIM-26337 to activate both the GRP and NMB receptors were analyzed using a calcium uptake functional assay.
Xenopus oocytes, a frog egg naturally deprived of any receptors, were coinjected with both NMB receptor RNA and calcium photoprotein aequorin. The ability of SAP bombesins to induce change in intracellular calcium levels within the cells were measured luminometrically. See Spindel, et al., Recent Progress in Hormone Research 48:365 (1993); Corjay, et al., J. Biol. Chem. 266:18771 (1991); and Giladi et al., BioTechniques 10:744 (1991), all of which are hereby incorporated by reference.
(§2) The ability of bombesin, NMB, SAP bombesin-14, and SAP bombesin-10 to agonize the receptor was tested.

Experiment [3] has as its system Swiss 3T3/1R mouse embryo fibroblast cells. In words: Thymidine uptake assay in Swiss 3T3 cells. The format is cell-based. The note with it: 24 h. As for the experimental part:
Swiss 3T3/1R mouse embryo fibroblast cells were plated in 24 well tissue culture plates at a density of 2×10^4 cells in 1 ml of Dublbecco's modified eagles medium (DMEM) supplemented with 40 mM glutamine (Gln) in 10% fetal bovine serum. Cells were incubated 3 or 4 days at […] in a humidified atmosphere at 95% air/5% CO2 before replacing the growth medium with DMEM/Gln and 250 μg/ml gentamicin. On the following day, 1 μCi thymidine was added to all wells, and activity was addressed by addition of test peptides alone or in the presence on 3 nM bombesin, respectively. After 24 h, the cells were rinsed with icecold isotonic saline and treated with ice-cold 5% trichloroacetic acid for 30 min. Cells were then rinsed with 95% ethanol and incubated with 0.1 N NaOH overnight at room temperature. One ml aliquots of neutralized samples were counted in a Packard Tri-Carb liquid scintillation analyzer. Test sample activity was measured in 2 independent experiments performed in quadruplicate.
This experiment was performed using 5 test samples: (1) bombesin (3 nM); (2) BIM-26336; (3) BIM-26337; (4) bombesin (3 nM) and BIM-26336; and (5) bombesin (3 nM)+BIM-26337. The results of these experiments are depicted on FIG. 6, wherein the x-axis depicts concentration of the respective SAP bombesin and the y-axis depicts disintegration per minute.

The target of experiment [4] is T2, human GRP receptor (Homo sapiens, UniProt P30550).
T2 construct: expressed in transfected cells; host or cells: Xenopus oocytes injected with GRP receptor RNA and aequorin
In words: Calcium uptake functional assay in xenopus oocytes expressing the human GRP receptor (aequorin luminometry). The format is cell-based. The note with it: xenopus oocytes coinjected with GRP receptor RNA and aequorin. As for the experimental part:
as §1
Xenopus oocytes were coinjected with both GRP receptor RNA and calcium photoprotein aequorin. The ability of SAP bombesins to induce change in intracellular calcium levels within the cells can be measured luminometrically.
as §2

Experiment [5] addresses GRP receptor (Rattus norvegicus, UniProt P52500). In words: biochemical. As for the experimental part: Membranes of the GRP receptor used in the binding assay were obtained by homogenizing cultured AR42J cells (Polytron, setting 6, 15 sec) in ice-cold 50 mM Tris-HC1 (Buffer A) and centrifuging twice as 39,000 x g (10 min), with an intermediate resuspension in fresh buffer. The final pellets were resuspended in the 50 mM Tris-HCl, containing 0.1 mg/ml bacitracin, and 0.1% BSA (Buffer B), and held on ice for the receptor binding assay. […] The experiment was performed with BIM-26336, […], GRP, and NMB as competing peptides.

Sequence of GRP receptor (P52500 whole entry): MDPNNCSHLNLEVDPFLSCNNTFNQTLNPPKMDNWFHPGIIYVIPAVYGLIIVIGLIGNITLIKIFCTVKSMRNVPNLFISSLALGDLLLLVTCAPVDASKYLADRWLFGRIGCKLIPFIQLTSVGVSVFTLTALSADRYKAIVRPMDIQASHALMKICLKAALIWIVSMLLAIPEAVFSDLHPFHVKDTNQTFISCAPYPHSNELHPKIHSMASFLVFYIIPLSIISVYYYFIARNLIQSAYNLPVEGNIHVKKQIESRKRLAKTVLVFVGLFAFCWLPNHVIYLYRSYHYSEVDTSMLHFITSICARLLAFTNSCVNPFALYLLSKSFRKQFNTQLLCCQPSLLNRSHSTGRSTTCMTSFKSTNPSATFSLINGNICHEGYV
Sequence of NMB receptor (P24053 whole entry): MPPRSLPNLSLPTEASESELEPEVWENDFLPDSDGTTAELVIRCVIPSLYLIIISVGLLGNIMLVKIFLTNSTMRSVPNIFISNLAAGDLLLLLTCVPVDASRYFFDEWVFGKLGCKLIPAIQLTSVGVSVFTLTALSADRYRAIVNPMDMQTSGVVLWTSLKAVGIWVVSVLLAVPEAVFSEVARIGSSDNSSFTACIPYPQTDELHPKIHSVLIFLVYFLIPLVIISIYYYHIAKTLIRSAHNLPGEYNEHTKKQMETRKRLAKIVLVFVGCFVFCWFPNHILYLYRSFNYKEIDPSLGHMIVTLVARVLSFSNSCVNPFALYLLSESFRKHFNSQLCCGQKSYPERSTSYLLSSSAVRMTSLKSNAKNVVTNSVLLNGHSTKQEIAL
T2 sequence (P30550 whole entry): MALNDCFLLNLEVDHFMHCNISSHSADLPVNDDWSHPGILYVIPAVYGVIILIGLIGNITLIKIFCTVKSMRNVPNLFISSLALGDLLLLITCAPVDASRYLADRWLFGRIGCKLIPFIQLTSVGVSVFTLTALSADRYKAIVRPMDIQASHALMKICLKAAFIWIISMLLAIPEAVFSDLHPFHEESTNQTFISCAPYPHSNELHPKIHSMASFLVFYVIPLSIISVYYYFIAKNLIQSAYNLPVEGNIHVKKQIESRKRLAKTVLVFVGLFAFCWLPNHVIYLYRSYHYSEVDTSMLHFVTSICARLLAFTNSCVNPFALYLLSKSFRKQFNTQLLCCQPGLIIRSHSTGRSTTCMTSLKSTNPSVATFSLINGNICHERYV
T1 sequence (P28336 whole entry): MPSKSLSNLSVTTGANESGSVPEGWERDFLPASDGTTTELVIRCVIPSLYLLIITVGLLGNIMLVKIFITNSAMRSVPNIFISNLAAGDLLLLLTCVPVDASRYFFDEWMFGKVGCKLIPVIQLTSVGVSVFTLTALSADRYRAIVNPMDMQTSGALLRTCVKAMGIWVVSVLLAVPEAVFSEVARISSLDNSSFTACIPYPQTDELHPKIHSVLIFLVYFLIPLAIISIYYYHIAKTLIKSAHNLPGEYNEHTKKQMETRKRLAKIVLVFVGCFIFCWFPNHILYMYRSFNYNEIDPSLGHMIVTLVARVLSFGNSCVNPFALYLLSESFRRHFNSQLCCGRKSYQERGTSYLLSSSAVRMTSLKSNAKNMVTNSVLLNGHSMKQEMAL

In the case of `CSCC[C@H](NC(=O)[C@H](Cc1ccccc1)NC(=O)[C@H](Cc1c[nH]cn1)NC(=O)CNC(=O)[C@H](CCCNC(=N)N)NC(=O)[C@H](C)NC(=O)[C@H](Cc1c[nH]c2ccccc12)NC(=O)[C@H](CCC(N)=O)NC(=O)[C@H](CC(N)=O)NC(=O)CNC(=O)[C@H](CC(C)C)NC(=O)[C@H](CO)NC(=O)[C@H](CCC(N)=O)NC(=O)[C@@H]1CCC(=O)N1)C(N)=O` [BIM-26337, H-pGlu-Gln-Ser-Leu-Gly-Asn-Gln-Trp-Ala-Arg-Gly-His-Phe-Met-NH2] ([pGlu]QSLGNQWARGHFM-NH2), the figures for the inhibition constant Ki in experiment [1] and in experiment [5] were 0.61 µM and 0.0064 µM, respectively. The “potency at the NMB receptor (intracellular calcium, relative to NMB)” value in experiment [2] is listed as “approximately two log units less than that of NMB”. In addition, the “thymidine uptake, peptide with bombesin” value in experiment [3] (in the presence of 3 nM bombesin) was “substantially enhanced”. The “thymidine uptake, peptide alone” value in experiment [3] (test peptide alone) is on record as “induce thymidine uptake”. Besides, the “potency at the GRP receptor (intracellular calcium)” value in experiment [4] is on record as “significantly greater potency than SAP bombesin-10”. Moreover, in experiment [5] (comparison of Ki at NMB and GRP receptors), the “binding selectivity between GRP and NMB receptors” value is recorded as “more selective binding of GRP than NMB receptors”.

As to “GNQWARGHFM-NH2 [BIM-26336, Gly-Asn-Gln-Trp-Ala-Arg-Gly-His-Phe-Met-NH2]”, the inhibitory constant (Ki) in experiment [1] was found to be 0.0151 µM; in experiment [5], 0.0066 µM.
